{
  "source": "patent US20080107625A1",
  "about": "“Inhibitors of Hepatitis C Virus” (Bristol-Myers Squibb Company, priority 2006, published 2008)",
  "tested_on": "HCV replicon (Renilla luciferase reporter) in HUH-7 cells",
  "experiment": "HCV replicon luciferase reporter assay",
  "assay_type": "cell-based, HCV strain 1b",
  "conditions": "Huh-7, 96 h; 4 days",
  "excerpt": "An HCV replicon whole cell system was established as described by Lohmann V, Korner F, Koch J, Herian U, Theilmann L, Bartenschlager R., Science 285(5424): 110-3 (1999). This system enabled us to evaluate the effects of our HCV Protease compounds on HCV RNA replication. Briefly, using the HCV strain 1b sequence described in the Lohmann paper (Assession number: AJ238799), an HCV cDNA was synthesized by Operon Technologies, Inc. (Alameda, Calif.), and the full-length replicon was then assembled in plasmid pGem9zf(+) (Promega, Madison, Wis.) using standard molecular biology techniques. […]\nAs a secondary assay, EC50 determinations from the replicon FRET assay were confirmed in a replicon luciferase reporter assay. […] Following 4 days in a 37° C./5% CO2 incubator, cells were analyzed for Renilla Luciferase activity using the Promega Dual-Glo Luciferase Assay System. […] Plates were read on a Packard TopCount NXT using a luminescence program.\nThe percentage inhibition was calculated using the formula below: • % control=average luciferase signal in experimental wells (+compound) • average luciferase signal in DMSO control wells (−compound)\nThe values were graphed and analyzed using XLfit to obtain the EC50 value.",
  "data": [
    {"smiles": "CC(C)(C)OC(=O)N[C@H]1CN(C2CC2)CCC/C=C\\C2C[C@@]2(C(=O)NS(=O)(=O)C2CC2)NC(=O)[C@@H]2C[C@@H](Oc3ccccn3)CN2C1=O", "note": "(stereo partly shown) [Compound 1]", "values": [
      {"measurement": "EC50", "value": 0.202, "unit": "µM"}
    ]}
  ]
}
